In PMC3445516 (PLoS ONE, 2012):

Columns and labels:
Experiment in all cases: Ambit kinase profiling, competition binding
PLK3 = biological target: T1, PLK3 (Homo sapiens, UniProt Q9H4B4); conditions: compound concentration 10 uM, read-out: Percent Competition
T1 construct: purchased Ambit Biosciences (KINOMEscan)
Excerpt: (§1) Supplement pone.0044653.s004.xls, sheet "Compound 122" | column: Percent Competition

MLK1 = biological target: T2, MLK1 (Homo sapiens, UniProt P80192); conditions: compound concentration 10 uM, read-out: Percent Competition
T2 construct: purchased Ambit Biosciences (KINOMEscan)
Excerpt: as §1

PRKG2 = biological target: T3, PRKG2 (Homo sapiens, UniProt Q13237); conditions: compound concentration 10 uM, read-out: Percent Competition
T3 construct: purchased Ambit Biosciences (KINOMEscan)
Excerpt: as §1

CDK8 = biological target: T4, CDK8 (Homo sapiens, UniProt P49336); conditions: compound concentration 10 uM
T4 construct: purchased Ambit Biosciences (KINOMEscan)
Excerpt: as §1

ULK3 = biological target: T5, ULK3 (Homo sapiens, UniProt Q6PHR2); conditions: compound concentration 10 uM
T5 construct: purchased Ambit Biosciences (KINOMEscan)
Excerpt: as §1

ALK = biological target: T6, ALK (Homo sapiens, UniProt Q9UM73); conditions: compound concentration 10 uM, read-out: Percent Competition
T6 construct: purchased Ambit Biosciences (KINOMEscan)
Excerpt: as §1

FLT3 = biological target: T7, FLT3 (Homo sapiens, UniProt P36888); conditions: compound concentration 10 uM, read-out: Percent Competition
T7 construct: purchased Ambit Biosciences (KINOMEscan)
Excerpt: as §1

HCK = biological target: T8, HCK (Homo sapiens, UniProt P08631); conditions: compound concentration 10 uM, read-out: Percent Competition
T8 construct: purchased Ambit Biosciences (KINOMEscan)
Excerpt: as §1

TAK1 = biological target: T9, TAK1 (Homo sapiens, UniProt O43318); conditions: compound concentration 10 uM, read-out: Percent Competition
T9 construct: purchased Ambit Biosciences (KINOMEscan)
Excerpt: as §1

MST1R = biological target: T10, MST1R (Homo sapiens, UniProt Q04912); conditions: compound concentration 10 uM, read-out: Percent Competition
T10 construct: purchased Ambit Biosciences (KINOMEscan)
Excerpt: as §1

NDR2 = biological target: T11, NDR2 (Homo sapiens, UniProt Q9Y2H1); conditions: compound concentration 10 uM, read-out: Percent Competition
T11 construct: purchased Ambit Biosciences (KINOMEscan)
Excerpt: as §1

TIE2 = biological target: T12, TIE2 (Homo sapiens, UniProt Q02763); conditions: compound concentration 10 uM, read-out: Percent Competition
T12 construct: purchased Ambit Biosciences (KINOMEscan)
Excerpt: as §1

PIM2 = biological target: T13, PIM2 (Homo sapiens, UniProt Q9P1W9); conditions: compound concentration 10 uM, read-out: Percent Competition
T13 construct: purchased Ambit Biosciences (KINOMEscan)
Excerpt: as §1

PHKG1 = biological target: T14, PHKG1 (Homo sapiens, UniProt Q16816); conditions: compound concentration 10 uM, read-out: Percent Competition
T14 construct: purchased Ambit Biosciences (KINOMEscan)
Excerpt: as §1

AMPK-alpha2 = biological target: T15, AMPK-alpha2 (Homo sapiens, UniProt P54646); conditions: compound concentration 10 uM, read-out: Percent Competition
T15 construct: purchased Ambit Biosciences (KINOMEscan)
Excerpt: as §1

AAK1 = biological target: T16, AAK1 (Homo sapiens, UniProt Q2M2I8); conditions: compound concentration 10 uM, read-out: Percent Competition
T16 construct: purchased Ambit Biosciences (KINOMEscan)
Excerpt: as §1

DRAK2 = biological target: T17, DRAK2 (Homo sapiens, UniProt O94768); conditions: compound concentration 10 uM, read-out: Percent Competition
T17 construct: purchased Ambit Biosciences (KINOMEscan)
Excerpt: as §1

ABL2 = biological target: T18, ABL2 (Homo sapiens, UniProt P42684); conditions: compound concentration 10 uM, read-out: Percent Competition
T18 construct: purchased Ambit Biosciences (KINOMEscan)
Excerpt: as §1

MST2 = biological target: T19, MST2 (Homo sapiens, UniProt Q13188); conditions: compound concentration 10 uM, read-out: Percent Competition
T19 construct: purchased Ambit Biosciences (KINOMEscan)
Excerpt: as §1

AKT2 = biological target: T20, AKT2 (Homo sapiens, UniProt P31751); conditions: compound concentration 10 uM, read-out: Percent Competition
T20 construct: purchased Ambit Biosciences (KINOMEscan)
Excerpt: as §1

PIK3CB = biological target: T21, PIK3CB (Homo sapiens, UniProt P42338); conditions: compound concentration 10 uM, read-out: Percent Competition
T21 construct: purchased Ambit Biosciences (KINOMEscan)
Excerpt: as §1

MAP3K3 = biological target: T22, MAP3K3 (Homo sapiens, UniProt Q99759); conditions: compound concentration 10 uM, read-out: Percent Competition
T22 construct: purchased Ambit Biosciences (KINOMEscan)
Excerpt: as §1

NEK7 = biological target: T23, NEK7 (Homo sapiens, UniProt Q8TDX7); conditions: compound concentration 10 uM, read-out: Percent Competition
T23 construct: purchased Ambit Biosciences (KINOMEscan)
Excerpt: as §1

NEK6 = biological target: T24, NEK6 (Homo sapiens, UniProt Q9HC98); conditions: compound concentration 10 uM, read-out: Percent Competition
T24 construct: purchased Ambit Biosciences (KINOMEscan)
Excerpt: as §1

PAK6 = biological target: T25, PAK6 (Homo sapiens, UniProt Q9NQU5); conditions: compound concentration 10 uM, read-out: Percent Competition
T25 construct: purchased Ambit Biosciences (KINOMEscan)
Excerpt: as §1

PLK1 = biological target: T26, PLK1 (Homo sapiens, UniProt P53350); conditions: compound concentration 10 uM, read-out: Percent Competition
T26 construct: purchased Ambit Biosciences (KINOMEscan)
Excerpt: as §1

GCN2(Kin.Dom.2,S808G) = biological target: T27, GCN2(Kin.Dom.2,S808G) (Homo sapiens, UniProt Q9P2K8, S808G); conditions: compound concentration 10 uM, read-out: Percent Competition
T27 construct: GCN2(Kin.Dom.2,S808G); purchased Ambit Biosciences (KINOMEscan)
Excerpt: as §1

FYN = biological target: T28, FYN (Homo sapiens, UniProt P06241); conditions: compound concentration 10 uM, read-out: Percent Competition
T28 construct: purchased Ambit Biosciences (KINOMEscan)
Excerpt: as §1

EPHA7 = biological target: T29, EPHA7 (Homo sapiens, UniProt Q15375); conditions: compound concentration 10 uM, read-out: Percent Competition
T29 construct: purchased Ambit Biosciences (KINOMEscan)
Excerpt: as §1

PIP5K1A = biological target: T30, PIP5K1A (Homo sapiens, UniProt Q99755); conditions: compound concentration 10 uM, read-out: Percent Competition
T30 construct: purchased Ambit Biosciences (KINOMEscan)
Excerpt: as §1

[1] = biological target: T31, RPS6KA2(Kin.Dom.1-N-terminal) (Homo sapiens, UniProt Q15349); conditions: compound concentration 10 uM, read-out: Percent Competition
T31 construct: RPS6KA2(Kin.Dom.1-N-terminal); purchased Ambit Biosciences (KINOMEscan)
Excerpt: as §1

PRKX = biological target: T32, PRKX (Homo sapiens, UniProt P51817); conditions: compound concentration 10 uM, read-out: Percent Competition
T32 construct: purchased Ambit Biosciences (KINOMEscan)
Excerpt: as §1

ASK1 = biological target: T33, ASK1 (Homo sapiens, UniProt Q99683); conditions: compound concentration 10 uM, read-out: Percent Competition
T33 construct: purchased Ambit Biosciences (KINOMEscan)
Excerpt: as §1

EPHB1 = biological target: T34, EPHB1 (Homo sapiens, UniProt P54762); conditions: compound concentration 10 uM, read-out: Percent Competition
T34 construct: purchased Ambit Biosciences (KINOMEscan)
Excerpt: as §1

FES = biological target: T35, FES (Homo sapiens, UniProt P07332); conditions: compound concentration 10 uM, read-out: Percent Competition
T35 construct: purchased Ambit Biosciences (KINOMEscan)
Excerpt: as §1

TNK1 = biological target: T36, TNK1 (Homo sapiens, UniProt Q13470); conditions: compound concentration 10 uM, read-out: Percent Competition
T36 construct: purchased Ambit Biosciences (KINOMEscan)
Excerpt: as §1

CSNK2A2 = biological target: T37, CSNK2A2 (Homo sapiens, UniProt P19784); conditions: compound concentration 10 uM, read-out: Percent Competition
T37 construct: purchased Ambit Biosciences (KINOMEscan)
Excerpt: as §1

PIP5K2B = biological target: T38, PIP5K2B (Homo sapiens, UniProt P78356); conditions: compound concentration 10 uM, read-out: Percent Competition
T38 construct: purchased Ambit Biosciences (KINOMEscan)
Excerpt: as §1

RIOK1 = biological target: T39, RIOK1 (Homo sapiens, UniProt Q9BRS2); conditions: compound concentration 10 uM, read-out: Percent Competition
T39 construct: purchased Ambit Biosciences (KINOMEscan)
Excerpt: as §1

TXK = biological target: T40, TXK (Homo sapiens, UniProt P42681); conditions: compound concentration 10 uM, read-out: Percent Competition
T40 construct: purchased Ambit Biosciences (KINOMEscan)
Excerpt: as §1

DCAMKL3 = biological target: T41, DCAMKL3 (Homo sapiens, UniProt Q9C098); conditions: compound concentration 10 uM, read-out: Percent Competition
T41 construct: purchased Ambit Biosciences (KINOMEscan)
Excerpt: as §1

## Fc1ccc(-c2c(-c3ccncc3)[nH]c3nccnc23)cc1 [RO1155697-000-005]
PLK3
  inhibition at 10 µM: < 50%
MLK1
  inhibition at 10 µM: < 50%
PRKG2
  inhibition at 10 µM: < 50%
CDK8
  Percent Competition: <50%
ULK3
  Percent Competition: <50%
ALK
  inhibition at 10 µM: < 50%
FLT3
  inhibition at 10 µM: < 50%
HCK
  inhibition at 10 µM: < 50%
TAK1
  inhibition at 10 µM: < 50%
MST1R
  inhibition at 10 µM: < 50%
NDR2
  inhibition at 10 µM: < 50%
TIE2
  inhibition at 10 µM: < 50%
PIM2
  inhibition at 10 µM: < 50%
PHKG1
  inhibition at 10 µM: < 50%
AMPK-alpha2
  inhibition at 10 µM: < 50%
AAK1
  inhibition at 10 µM: < 50%
DRAK2
  inhibition at 10 µM: < 50%
ABL2
  inhibition at 10 µM: < 50%
MST2
  inhibition at 10 µM: < 50%
AKT2
  inhibition at 10 µM: < 50%
PIK3CB
  inhibition at 10 µM: < 50%
MAP3K3
  inhibition at 10 µM: < 50%
NEK7
  inhibition at 10 µM: < 50%
NEK6
  inhibition at 10 µM: < 50%
PAK6
  inhibition at 10 µM: < 50%
PLK1
  inhibition at 10 µM: < 50%
GCN2(Kin.Dom.2,S808G)
  inhibition at 10 µM: < 50%
FYN
  inhibition at 10 µM: < 50%
EPHA7
  inhibition at 10 µM: < 50%
PIP5K1A
  inhibition at 10 µM: < 50%
[1]
  inhibition at 10 µM: < 50%
PRKX
  inhibition at 10 µM: < 50%
ASK1
  inhibition at 10 µM: < 50%
EPHB1
  inhibition at 10 µM: < 50%
FES
  inhibition at 10 µM: < 50%
TNK1
  inhibition at 10 µM: < 50%
CSNK2A2
  inhibition at 10 µM: < 50%
PIP5K2B
  inhibition at 10 µM: < 50%
RIOK1
  inhibition at 10 µM: < 50%
TXK
  inhibition at 10 µM: < 50%
DCAMKL3
  inhibition at 10 µM: < 50%
